This is an account of results in patent US10487054B2, “Therapeutic compounds” (REGENTS OF THE UNIVERSITY OF MINNESOTA, priority 2017, dated 2019).

One assay relates to A431 cells. The experiment in a line: Crystal violet staining cell proliferation assay. In kind it is cell-based, human. Conditions: dose-dependent, several days. As to the method: (§1) Cells were exposed to EGF (10 ng/ml) and treated with increasing concentrations of compound 1. Representative photographs are shown and data are presented as mean values±S.D. from triplicate experiments. […] Cells were treated with different concentrations of compound 1 for several days and cell proliferation was determined by a crystal violet staining assay.
(§2) Cell proliferation was determined by a crystal violet staining assay. Cells (3×10^4/well) were seeded into 24-well plates. After an overnight incubation, cells were treated with different concentrations of compound 1 and incubated for several days. Then, each well was washed 3 times with phosphate buffered saline (PBS) and stained with 0.2% (w/v) crystal violet in 2% (v/v) ethanol. After 10 min, cells were washed 3 times with distilled water, and the remaining dye was dissolved in 0.5% (w/v) sodium dodecyl sulfate in 50% (v/v) ethanol. Absorbance was measured at an optical density of 540 nm using the Thermo Multiskan plate-reader (Thermo Fisher Scientific).

The test system of a further assay is SCC12 cells. Kind of assay: Crystal violet staining cell proliferation assay. In kind it is cell-based, human. Conditions: dose-dependent, several days. As to the method:
as §1, §2

A further assay addresses T1, active TOPK (Homo sapiens, UniProt Q96KB5).
T1 construct: purchased SignalChem (Richmond, BC, Canada)
T1 sequence (Q96KB5 1-322): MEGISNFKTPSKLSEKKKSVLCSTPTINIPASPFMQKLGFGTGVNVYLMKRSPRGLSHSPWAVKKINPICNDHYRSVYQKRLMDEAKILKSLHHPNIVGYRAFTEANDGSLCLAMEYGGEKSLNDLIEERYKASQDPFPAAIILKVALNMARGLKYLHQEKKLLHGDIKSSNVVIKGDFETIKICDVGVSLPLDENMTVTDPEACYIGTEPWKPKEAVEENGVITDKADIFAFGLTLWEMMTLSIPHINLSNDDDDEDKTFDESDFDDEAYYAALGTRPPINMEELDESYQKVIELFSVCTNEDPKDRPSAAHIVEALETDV
The experiment in a line: ATP competition pull-down assay with compound 1-conjugated Sepharose 4B beads. Format: binding. The settings on record: ATP 0, 10 or 100 μM; active TOPK 200 ng. On the procedure: Active TOPK (200 ng) was incubated with different concentrations of ATP (0, 10 or 100 μM) and then mixed with compound 1-conjugated Sepharose 4B beads or Sepharose 4B beads. Proteins were pulled down and analyzed by Western blot. Data are representative of 3 independent experiments that gave similar results. FIGS. 2C and 2D show compound 1 binds to either TOPK (2C) or MEK1/2 (2D) ex vivo. Lysates from HaCaT cells (500 μg) were incubated with compound 1-conjugated Sepharose 4B beads or Sepharose 4B beads alone and the pulled-down proteins were analyzed by Western blot. Data are representative of 3 independent experiments that gave similar results. FIGS. 2E and 2F show compound 1 inhibits TOPK kinase (2E) activity but not MEK1 kinase (2F) activity in vitro. Active TOPK (200 ng) was mixed with compound 1 (0, 0.5, 1, 3, or 5 μM) or HI-032 (TOPK inhibitor, 10 μM) and then incubated with a [γ-^32P] ATP mixture. Similarly, MEK1 (200 ng) was mixed with compound 1 (0, 0.5, 1, 3, 5, or 10 μM) or PD098059 (MEK1 inhibitor, 5 μM) and then incubated with a [γ-^32P] ATP mixture. For 2E and 2F, the results are visualized by autoradiography and Coomassie blue staining serves as a loading control. Data are representative of 3 independent experiments that gave similar results. […]

The structures appear in SMILES notation.

For the molecule `O=C1Nc2ccc(C34CC5CC(CC(C5)C3)C4)cc2C1=NO` [compound 1, 5-(adamantan-1-yl)-3-(hydroxyimino)indolin-2-one], the cell proliferation entry with A431 cells and in the assay on SCC12 cells was “strongly decreased” each time. Also, the “binding ability with TOPK in presence of ATP” value at active TOPK was “altered in the presence of ATP”.
